From patent US20080311589A1, “METHOD OF HIGH-THROUGHPUT SCREENING OF MOLECULES AND COMPOUNDS FOR THEIR EFFECTS ON BIOLOGICAL AND CHEMICAL PROCESSES” (priority 1999, published 2008)
“Also recorded” adds a separate entry of the source. Where two headings read alike, the source gives them in different places.

Assays:
[1] = test system: p3TPLux TGFβ-responsive reporter in 6F mink lung cells; assay: luciferase assay, stably transfected p3TPLux; format: cell-based; conditions: for synergy with TGFβ: 400 pM TGFβ1; for reporter gene expression: stably transfected reporter
Protocol: FIG. 19 graphs the dose-response of transcriptional activation of compounds 1a and 2 in the presence (*) or absence (•) of 400 pM TGFβ1. 20,000 6F mink lung cells ( ) were seeded in 384 well plates, allowed to attach for 16 hours in 10% mink medium, and were treated with the indicated concentrations of 1a or 2.
We screened more than 16,000 chemical compounds to identify those that specifically activated expression of a reporter gene (luciferase) under the control of TGFβ-responsive elements in stably transfected mammalian cells (mink lung epithelial cells). […] Given the structural similarity of compounds 1a-c, we expected that all three were operating through a common mechanism. We therefore continued testing on only one, compound 1a, as representative of the group.

[2] = test system: transiently transfected TGFβ-responsive reporter; assay: transient transfection luciferase assay, p3TPLux; format: cell-based, mink
Protocol: (§1) LUCIFERASE ASSAYS: Our transient transfection luciferase assay was described previously by us (Stockwell et al., Chem Biol 5:385, 1998). Briefly, 100,000 Mv1Lu mink lung epithelial cells were transiently transfected in 12-well dishes with 400 ng p3TPLux or pNFkB-Lux, with or without 50 ng pFC-MEKK, in 300 μL minimal essential medium with non-essential amino acids. The DEAE-dextran/chloroquine/DMSO methods was used for transfection (Stockwell et al., Chem Biol 6:71, 1999). After cell lysis in 120 μL lysis buffer, a Beckman LS 6500 liquid scintillation counter was used in single photon mode to quantitate luminescence. For detection of luciferase activity in 6F cells (including the primary screen), 20,000 6F cells were seeded in 50 μL of 10% mink medium in each well of a white 384-well plate (Nalge Nune International; Naperville, Ill.; cat#164610) using a Multidrop 384 liquid dispenser (Lab Systems; Helsinki, Finland). After 16 hours, medium was removed using a 24 channel wand (V&P Scientific, Inc.; San Diego, Calif.; cat#VP 186L), the cells were washed with 75 μL of 0.2% mink medium (containing 0.2% FBS), and reagents were added in 40 μL of 0.2% medium. For the primary screen, reagents were added by pin transfer using 384 polypropylene pin arrays (Matrix Technologies; Hudson, N.H.). After 24 hours, the cells were cooled on ice and washed twice with 75 μL Hanks Balanced Salt Solution (HBSS; GibcoBRL; cat#24020-117). Then 20 μL lysis buffer (25 mM glycylglycine (Sigma; cat#E-0396), 1% Triton X-100 (Sigma; cat#T-9284), 1 mM dithiothreitol (DTT; Sigma; cat#D-5545), 1 mM phenylmethylsulfonyl fluoride (PMSF; Sigma; cat#P-7626)) was added to each well with a Multidrop. After incubating the cells for five minutes on ice, 20 μL of ATP/luciferin solution was added (25 mM glycylglycine pH 7.8, 15 mM MgSO4, 4 mM EGTA, 6.25 mM K2HPO4 (Sigma; cat#P5504) pH 7.8, 5 mM DTT, 75 μM D-luciferin (Sigma, cat# L-9504, 2 mM ATP (Sigma; cat#A-7699)). Light output was immediately measured with an Analyst 384-well platereader (LJL), with 0.5 second counting time per well.

[3] = test system: mink lung epithelial cells; assay: BrdU cytoblot assay for S-phase progression; format: cell-based
Excerpt: BRDU CYTOBLOT ASSAY: The BrdU cytoblot assay for S-phase progression was described previously by Stockwell et al. (Chem. Biol. 6:71, 1999; see also, U.S. Patent Application Ser. No. 60/094,305, incorporated herein by reference).
Compounds that mimic TGFβ activity would be expected to be capable of inducing cell cycle arrest or apoptosis, and in particular to block DNA replication, in responding cells. We therefore used an S-phase progression cytoblot assay to test whether our compounds could inhibit 5-bromodeoxyuridine (BrdU) incorporation into mink epithelial cells. […] Both compounds were therefore classified as true TGFβ mimics.

BS-C-1 cells = assay: fluorescence microscopy and live imaging of BS-C-1 cells; format: cell-based, monkey; conditions: BS-C-1 cells; 1A at 40 μM for 4 hours
Excerpt: We investigated the phenotype of mammalian cells (BS-C-I) treated with the compounds of group III. […] Our examination of the distribution of microtubules, actin, and chromatin in fixed cells by fluorescence microscopy allowed us to divide the small molecules into three classes.
We then asked whether the chromosomes surrounding the monoastral microtubule array maintain microtubule attachment.

[4] = UV spectral shift binding assay with 1a; conditions: UV 240-310 nm
Protocol: (§2) UV SPECTRAL SHIFT BINDING ASSAY: A quartz cuvette with 1 mL deionized, distilled water was used as a blank on a Cary 1E UV-visible spectrophotomer. 1a or 2 was diluted to a final concentration of 15 μM or 20 μM, respectively, and the UV spectrum from 240 nm to 320 nm was measured. […] Upon addition of certain transition metals (Table 1), this peak shifted such that the new λmax was 273 nm and 310 nm, for 1a and 2, respectively. […] For the calculation of correlation coefficients, all values less than 7.5 μM were taken to be 7.5 μM, all values greater than 1000 μM were taken to be 1000 μm and all values less than 10 μM were taken to be 10 μM.

microtubules [5] = assay: competition with fluorescently labeled taxol; format: binding; conditions: oregon green labeled taxol, fluorescence polarization
Excerpt: (§3) Since taxol and discodermolide prevent cold depolymerization of microtubules (Hung et al., Chem. Biol. 3:287, 1996), we tested whether synstab A-treatment of cells would cause a similar effect. […] This mutually exclusive binding is consistent with the observed taxol-like effects of synstab A on cells and on purified microtubules.
Three different assays were used to confirm microtubule-stabilizing effects in the in vitro tubulin polymerization assay by repeating the above experiment. In addition, three independent experiment assessments were carried out. 1) In vitro competition experiments with fluorescence-labeled taxol. […] 2) In vivo incubation of BSCI-cells (a monkey epithelial cell line) with 40 μM 1A for four hours. In brief, BSCI cells were seeded on glass coverslips and cultured overnight. […] 3) treatment of cells with 1A resulted index by the phosphonucleolin (TG-3) cytoblot as described above as measured visually.

[6] = test system: control reporter responsive to NFκB; conditions: transiently transfected
Protocol: as §1, with “After 16 hours, medium was removed using a 24 channel wand (V&P Scientific, Inc.; San Diego, Calif.; cat#VP 186L), the cells were washed with 75 μL of 0.2% mink medium (containing 0.2% FBS), and reagents were added in 40 μL of 0.2% medium. For the primary screen, reagents were added by pin transfer using 384 polypropylene pin arrays (Matrix Technologies; Hudson, N.H.). After 24 hours, the cells were cooled on ice and washed twice with 75 μL Hanks Balanced Salt Solution (HBSS; GibcoBRL; cat#24020-117). Then 20 μL lysis buffer (25 mM glycylglycine (Sigma; cat#E-0396), 1% Triton X-100 (Sigma; cat#T-9284), 1 mM dithiothreitol (DTT; Sigma; cat#D-5545), 1 mM phenylmethylsulfonyl fluoride (PMSF; Sigma; cat#P-7626)) was added to each well with a Multidrop.” left out

[7] = test system: S. cerevisiae strain BY4741
Protocol: TRANSCRIPTIONAL PROFILING: We performed transcriptional profiling on yeast cells according to known techniques. […] We therefore set thresholds of 0.5 fold and 2.0 fold for transcriptional repression and transcriptional activation, respectively, in our experimental comparisons of untreated cells and cells treated with test compounds.
Briefly, S. cerevisiae strain BY4741 (haploid) was streaked on a YPD plate, grown for 3 days at 30° C., and used to inoculate a 50 mL overnight culture of YPD. This culture was diluted into pre-warmed YPD such that A600=0.04 and allowed to grow until A600=0.47. The culture was split into pre-warmed flasks, with 50 mL in each of three flasks and 150 mL in a fourth flask. […] The cultures were centrifuged at 2500 g at room temperature for five minutes and the pelle frozen in liquid nitrogen. Total RNA was purified from each culture by hot acidic phenol/chloroform extraction and ethanol precipitation. Poly-A RNA wad purified with a Qiagen Oligotex mRNA Midi Kit (Qiagen; Valencia, Calif.; cat#70042). Fluorescently-labeled probe was prepared from […] poly-A mRNA and applied to glass slides that had been printed with 6240 yeast ORFs (James Hardwick, Jeffrey Tong, and Stuart L. Schreiber, unpublished results). The microarray was scanned with an Array Works scanner and the results were analyzed with Gene Spring software.

[8] = UV spectral shift binding assay with 2; conditions: UV 240-310 nm
Protocol: as §2

phosphonucleolin = phosphonucleolin cytoblot, suppression of nocodazole-induced mitotic arrest; format: cell-based, human; conditions: A549 cells; pretreated 8 hour, then 250 nM nocodazole 12 hours
Protocol: FIG. 10. The ability of anti-proliferative agents such as juglone to suppress the effects of nocodazole-induced mitotic arrest can be detected in a cytoblot. […] (b) A549 human lung carcinoma cells were seeded at a density of 4000 cells in 40 μL of DMEM+ in each well of a white, opaque 384-well plate and incubated overnight at 37° C. with 5% CO2. Cells were either untreated or pretreated with juglone at the indicated concentrations for 8 hour. Subsequently, nocodazole at a final concentration of 250 nM was added to all wells in a final volume of 50 μL and the cells incubated for a further 12 hours. A phosphonucleolin cytoblot was performed. […] A 4 mm scale bar is shown.
The treatment of cells with any small molecule that arrests cells outside of mitosis will suppress the ability of nocodazole to arrest cells in mitosis. […] It was hypothesized that inhibition of Pin1, which is an essential, highly conserved PPIase required for proper mitotic division in Xenopus and yeast, would prevent entry into mitosis and consequently prevent accumulation of phosphonucleolin (FIG. 10a).

microtubules [9] = assay: cold depolymerization of microtubules in cells; format: cell-based; conditions: 4° C., 0.5 h, taxol 10 μM, 4 h, synstab A 25 μM
Excerpt: as §3

TG-3 staining = assay: fluorescence-activated cell sorting and TG-3 immunoblotting; format: cell-based; conditions: concentrations that do not affect viability

| SMILES | synergy with TGFβ [1] | reporter gene expression [1] | activation of transiently versus stably transfected TGFβ-responsive reporter [2] | BrdU incorporation [3] | microtubule, spindle and chromosome phenotype (BS-C-1 cells) | activation of NFκB-responsive control reporter [6] | further results |
| --- | --- | --- | --- | --- | --- | --- | --- |
| CN(c1ccc2cccc(O)c2n1)c1ccc2cccc(O)c2n1 [Compound 1a, 2,2′-(methylimino)bis-8(quinolinol)] | synergistic with TGFβ | dose-dependent increase in reporter gene expression | less effective | inhibited BrdU incorporation; also recorded: inhibition of BrdU incorporation | showed bundling of interphasic microtubules and aberrant mitotic spindles with misaligned chromosomes | Neither compound activated | binding of 1a to metals (shift in UV absorbance maximum) [4]: binds strongly to Zn^2+, Fe^2+, Cu^2+, Cu^+, and Al^3+, and less well to Mn^2+, Co^2+, and Ni^2+; competition for binding of fluorescently labeled taxol (microtubules [5]): compete off bound labeled taxol; […] IN PRESENCE OF COMPOUND […] IN ABSENCE OF COMPOUND ([7]; gene YAL045C (ARN1), Multi-drug resistance pump, repressed genes): 0.49; […] IN PRESENCE OF COMPOUND […] IN ABSENCE OF COMPOUND ([7]; gene YBL005WA, TyA transposon, activated genes): 2.2; […] IN PRESENCE OF COMPOUND […] IN ABSENCE OF COMPOUND ([7]; gene YHL040C (ARN1), multidrug resistance pump, activated genes): 2.0 |
| O=C(NN=Cc1ccccc1O)c1ccc(O)cc1 [Compound 2, Benzoic acid, 4-hydroxy, [(2-hydroxyphenyl)methylene]hydrazide] | synergistic with TGFβ | dose-dependent increase in reporter gene expression | less effective | inhibited BrdU incorporation; also recorded: inhibition of BrdU incorporation |  | Neither compound activated | synergy with metals in reporter activation [1]: synergized strongly with both Cu^+ and Cu^2+ but not with other metals; activity in screen (TGFβ-responsive luciferase reporter) ([1]; primary screen of more than 16,000 compounds): showed activity in our screen; effect on gene expression in yeast cells [7]: no detectable effect on gene expression in yeast cells; binding of 2 to metals (shift in UV absorbance maximum) [8]: binds well to Fe^3+, Cu^2+, Cu^+, and CO^2+, and also shows some binding to Ni^2+ |
| O=C1C=CC(=O)c2c(O)cccc21 [juglone] |  |  |  |  |  |  | concentrations that prevent accumulation of phosphonucleolin (phosphonucleolin): greater than 25 microM |
| CC(=O)O[C@H]1C(=O)[C@@]2(C)[C@H]([C@H](OC(=O)c3ccccc3)[C@]3(O)C[C@H](OC(=O)[C@H](O)[C@@H](NC(=O)c4ccccc4)c4ccccc4)C(C)=C1C3(C)C)[C@]1(OC(C)=O)CO[C@@H]1C[C@@H]2O [taxol] |  |  |  |  | less pronounced than that induced by synstab A |  | protection from cold depolymerization (microtubules [9]): noticeably stabilized microtubules; TG-3 reactivity of total cell extracts (TG-3 staining): increased TG-3 reactivity |
